From ChEMBL document CHEMBL1201862, “PubChem BioAssay data set” (2004)
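Grown in 96-well plates, cells were treated for 48 hours with each compound at five concentrations. Insufficient inhibition: endpoint recorded as highest concentration tested. At the GI50, growth is halved.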 Calls of active or inactive are those of the source. Rule as the data show it: active = GI50 up to about 1.1 µM and inactive = higher.

What was measured:
Test in all cases: growth of human tumour cells (NCI), 48 h
SR = test system: SR
U-251 = test system: U-251
KM12 = test system: KM12
NCI-H226 = test system: NCI-H226
SK-MEL-28 = test system: SK-MEL-28
SF-295 = test system: SF-295
EKVX = test system: EKVX
SN12C = test system: SN12C
NCI-H460 = test system: NCI-H460
UACC-62 = test system: UACC-62
HCT-116 = test system: HCT-116
LOX IMVI = test system: LOX IMVI
HOP-62 = test system: HOP-62
UO-31 = test system: UO-31
A498 = test system: A498
SF-268 = test system: SF-268

Measured: GI50

COC(=O)c1cc(OC(C)=O)c2c(OC)ccc(OC)c2c1
inactive: SR 86.1 µM | U-251 > 100 µM | KM12 > 100 µM | NCI-H226 > 100 µM | SK-MEL-28 > 100 µM | SF-295 > 100 µM | EKVX > 100 µM | SN12C > 100 µM | NCI-H460 > 100 µM | UACC-62 > 100 µM | HCT-116 > 100 µM

CC(C)=Cc1cc(C(=O)NCCNC(=O)c2cc(C=C(C)C)nc(NC#N)n2)nc(NC#N)n1
inactive: LOX IMVI > 100 µM | HOP-62 > 100 µM | UO-31 > 100 µM | U-251 > 100 µM | KM12 > 100 µM | A498 > 100 µM | NCI-H226 > 100 µM | SF-268 > 100 µM | SK-MEL-28 > 100 µM | SF-295 > 100 µM | EKVX > 100 µM | SN12C > 100 µM | NCI-H460 > 100 µM | UACC-62 > 100 µM | HCT-116 > 100 µM

CSc1nc2nc(C(O)C(O)C(O)CO)cnc2c(=O)[nH]1 (configuration not stated)
inactive: LOX IMVI > 100 µM | HOP-62 > 100 µM | UO-31 > 100 µM | U-251 > 100 µM | KM12 > 100 µM | A498 > 100 µM | NCI-H226 > 100 µM | SF-268 > 100 µM | SK-MEL-28 > 100 µM | SF-295 > 100 µM | EKVX > 100 µM | SN12C > 100 µM | NCI-H460 > 100 µM | UACC-62 > 100 µM | HCT-116 > 100 µM

Cc1[nH]nc2c1C(=O)C=C(N(CCO)c1ccccc1)C2=O
inactive: LOX IMVI 4.05 µM | UO-31 > 100 µM | U-251 > 100 µM | KM12 > 100 µM | NCI-H226 > 100 µM | SK-MEL-28 > 100 µM | SF-295 > 100 µM | EKVX > 100 µM | SN12C > 100 µM | UACC-62 > 100 µM | HCT-116 > 100 µM

Cc1ccc(C2=C(c3ccccc3)C(=O)C(c3ccccc3)=C2c2ccc(C)cc2)cc1
inactive: SR 58.5 µM | HOP-62 > 100 µM | UO-31 > 100 µM | U-251 25.1 µM | KM12 36.5 µM | A498 > 100 µM | NCI-H226 65.5 µM | SF-268 32.1 µM | SK-MEL-28 21.9 µM | SF-295 18.4 µM | EKVX 38 µM | SN12C 66.5 µM | NCI-H460 36.1 µM | HCT-116 31.4 µM

COc1cc(C(=O)Nc2cccc3ccccc23)c(Br)c(OC)c1OC
inactive: LOX IMVI 80 µM | SR > 100 µM | HOP-62 > 100 µM | UO-31 31.4 µM | U-251 > 100 µM | KM12 70.3 µM | NCI-H226 36.3 µM | SF-268 97.1 µM | SK-MEL-28 89.9 µM | SF-295 > 100 µM | EKVX > 100 µM | SN12C > 100 µM | NCI-H460 64.9 µM | UACC-62 45.2 µM | HCT-116 67.9 µM

Sc1nnc(COc2ccc(Cl)cc2)[nH]1
inactive: LOX IMVI > 100 µM | HOP-62 > 100 µM | UO-31 > 100 µM | U-251 > 100 µM | KM12 > 100 µM | A498 > 100 µM | NCI-H226 > 100 µM | SF-268 > 100 µM | SK-MEL-28 > 100 µM | SF-295 > 100 µM | SN12C > 100 µM | NCI-H460 > 100 µM | UACC-62 > 100 µM | HCT-116 > 100 µM

CC(Oc1ccc(OCC2CCCCC2)cc1)C(=O)NCCO (configuration not stated)
inactive: LOX IMVI 26.7 µM | UO-31 56.4 µM | U-251 > 100 µM | KM12 > 100 µM | A498 48 µM | NCI-H226 > 100 µM | SF-268 > 100 µM | SK-MEL-28 > 100 µM | SF-295 23.4 µM | SN12C > 100 µM | NCI-H460 52.1 µM | UACC-62 > 100 µM | HCT-116 > 100 µM

O=C(CCc1n[nH]c(=S)o1)Nc1ccccc1C(F)(F)F
inactive: HOP-62 > 100 µM | UO-31 > 100 µM | U-251 > 100 µM | KM12 > 100 µM | A498 > 100 µM | NCI-H226 > 100 µM | SF-268 > 100 µM | SK-MEL-28 > 100 µM | SF-295 > 100 µM | EKVX > 100 µM | SN12C > 100 µM | NCI-H460 > 100 µM | UACC-62 > 100 µM | HCT-116 > 10 µM

COc1ccc(/C=N\O[Si](C)(C)C(C)(C)C)cc1O[Si](C)(C)C(C)(C)C
inactive: LOX IMVI 20 µM | HOP-62 20.2 µM | UO-31 14.7 µM | U-251 19.7 µM | KM12 17.6 µM | A498 16.7 µM | SF-268 21.5 µM | SF-295 17.2 µM | EKVX 21 µM | SN12C 19.2 µM | NCI-H460 20.6 µM | UACC-62 18.8 µM | HCT-116 15.7 µM

O=C1CCN(CCC(F)(F)C(F)(F)C(F)(F)C(F)(F)F)C(=S)N1
inactive: LOX IMVI > 100 µM | SR > 100 µM | HOP-62 > 100 µM | UO-31 > 100 µM | U-251 > 100 µM | KM12 > 100 µM | NCI-H226 > 100 µM | SF-268 > 100 µM | SK-MEL-28 > 100 µM | SF-295 > 100 µM | EKVX > 100 µM | SN12C > 100 µM | NCI-H460 > 100 µM | UACC-62 > 100 µM | HCT-116 > 100 µM

COC(=O)c1cc(C)c(C)c2c1NC(=O)CNC2=O
inactive: SR > 100 µM | HOP-62 > 100 µM | UO-31 33.5 µM | U-251 > 100 µM | KM12 > 100 µM | A498 > 100 µM | SK-MEL-28 > 100 µM | SF-295 > 100 µM | EKVX > 100 µM | SN12C > 100 µM | NCI-H460 > 100 µM | UACC-62 > 100 µM | HCT-116 > 100 µM

Cn1c2c(c3ccccc31)CCN(CCCN1CCN(c3cccc(Cl)c3)CC1)C2=O
inactive: LOX IMVI 20.2 µM | HOP-62 18.7 µM | UO-31 11 µM | U-251 3.27 µM | A498 3.05 µM | SF-268 15.6 µM | SK-MEL-28 17.4 µM | EKVX 41.7 µM | SN12C 21.4 µM | NCI-H460 5.81 µM | UACC-62 17.4 µM | HCT-116 12.3 µM

COc1cc(C(=O)O)cc2c1[nH]c1ccccc12 [MUKOEIC ACID]
inactive: LOX IMVI > 25 µM | SR > 25 µM | HOP-62 > 25 µM | UO-31 > 25 µM | U-251 > 25 µM | KM12 > 25 µM | NCI-H226 > 25 µM | SF-268 > 25 µM | SK-MEL-28 > 25 µM | SN12C > 25 µM | NCI-H460 > 25 µM | UACC-62 > 25 µM | HCT-116 > 25 µM

CC1OC(=O)N(CCCC=C2SCCCS2)C1=O (configuration not stated)
inactive: LOX IMVI > 100 µM | UO-31 > 100 µM | U-251 > 100 µM | KM12 > 100 µM | A498 > 100 µM | NCI-H226 > 100 µM | SF-268 > 100 µM | SK-MEL-28 > 100 µM | SF-295 > 100 µM | EKVX > 100 µM | SN12C > 100 µM | NCI-H460 > 100 µM | UACC-62 > 100 µM | HCT-116 > 100 µM
